Laboratory results taken from ChEMBL document CHEMBL1201862, “PubChem BioAssay data set” (2004).
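1) Cells in 96-well plates. 2) Compound, 48 h, 5 concentrations. 3) Linear interpolation between surrounding doses. 4) Unreached endpoint = highest concentration. At the GI50, growth is halved.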 The source made the active and inactive calls. Rule as the data show it: active = GI50 up to about 1.1 µM and inactive = higher.

Experiments:
Assay in all cases: inhibition of tumour cell growth, NCI panel, 48 h
NCI-H522 = test system: NCI-H522
SN12C = test system: SN12C
PC-3 = test system: PC-3
K562 = test system: K562
MOLT-4 = test system: MOLT-4
HOP-92 = test system: HOP-92
TK-10 = test system: TK-10
UACC-257 = test system: UACC-257
SF-295 = test system: SF-295
LOX IMVI = test system: LOX IMVI
DU-145 = test system: DU-145
HCT-15 = test system: HCT-15
MCF7 = test system: MCF7
HOP-62 = test system: HOP-62
HCC 2998 = test system: HCC 2998
SF-268 = test system: SF-268
HT-29 = test system: HT-29
A549 = test system: A549
RXF 393 = test system: RXF 393
U-251 = test system: U-251
SK-OV-3 = test system: SK-OV-3
MDA-MB-231 = test system: MDA-MB-231
HL-60 = test system: HL-60
UACC-62 = test system: UACC-62
OVCAR-8 = test system: OVCAR-8
NCI-H460 = test system: NCI-H460
OVCAR-4 = test system: OVCAR-4
SR = test system: SR
EKVX = test system: EKVX
A498 = test system: A498
NCI-H23 = test system: NCI-H23
SF-539 = test system: SF-539
Malme-3M = test system: Malme-3M
KM12 = test system: KM12
BT-549 = test system: BT-549
786-0 = test system: 786-0
IGROV-1 = test system: IGROV-1
T47D = test system: T47D
HCT-116 = test system: HCT-116
NCI-H226 = test system: NCI-H226
Hs-578T = test system: Hs-578T
OVCAR-5 = test system: OVCAR-5
MDA-N = test system: MDA-N
CCRF-CEM = test system: CCRF-CEM
SNB-75 = test system: SNB-75
COLO 205 = test system: COLO 205
MDA-MB-435 = test system: MDA-MB-435
SW-620 = test system: SW-620
NCI/ADR-RES = test system: NCI/ADR-RES
SNB-19 = test system: SNB-19
SK-MEL-5 = test system: SK-MEL-5
CAKI-1 = test system: CAKI-1
SK-MEL-28 = test system: SK-MEL-28
RPMI-8226 = test system: RPMI-8226
OVCAR-3 = test system: OVCAR-3
ACHN = test system: ACHN
UO-31 = test system: UO-31
SK-MEL-2 = test system: SK-MEL-2
M14 = test system: M14

## Nc1nc(Cl)cc(NCC2(O)CC(CO)C2)n1 (stereo unspecified)
NCI-H522
  GI50: > 100 µM (inactive)
SN12C
  GI50: > 100 µM (inactive)
PC-3
  GI50: > 100 µM (inactive)
K562
  GI50: > 100 µM (inactive)
MOLT-4
  GI50: > 100 µM (inactive)
HOP-92
  GI50: > 100 µM (inactive)
TK-10
  GI50: > 100 µM (inactive)
UACC-257
  GI50: > 100 µM (inactive)
SF-295
  GI50: > 100 µM (inactive)
LOX IMVI
  GI50: > 100 µM (inactive)
DU-145
  GI50: > 100 µM (inactive)
HCT-15
  GI50: > 100 µM
MCF7
  GI50: > 100 µM (inactive)
HOP-62
  GI50: > 100 µM (inactive)
HCC 2998
  GI50: > 100 µM (inactive)
SF-268
  GI50: > 100 µM (inactive)
HT-29
  GI50: > 100 µM (inactive)
A549
  GI50: > 100 µM (inactive)
RXF 393
  GI50: > 100 µM (inactive)
U-251
  GI50: > 100 µM (inactive)
SK-OV-3
  GI50: > 100 µM (inactive)
MDA-MB-231
  GI50: > 100 µM (inactive)
HL-60
  GI50: > 100 µM (inactive)
UACC-62
  GI50: > 100 µM (inactive)
OVCAR-8
  GI50: > 100 µM (inactive)
NCI-H460
  GI50: > 100 µM (inactive)
OVCAR-4
  GI50: > 100 µM (inactive)
SR
  GI50: > 100 µM (inactive)
EKVX
  GI50: > 100 µM (inactive)
A498
  GI50: > 100 µM (inactive)
NCI-H23
  GI50: > 100 µM (inactive)
SF-539
  GI50: > 100 µM (inactive)
Malme-3M
  GI50: > 100 µM (inactive)
KM12
  GI50: > 100 µM (inactive)
BT-549
  GI50: > 100 µM (inactive)
786-0
  GI50: > 100 µM (inactive)
IGROV-1
  GI50: > 100 µM (inactive)
T47D
  GI50: > 100 µM (inactive)
HCT-116
  GI50: > 100 µM (inactive)
NCI-H226
  GI50: > 100 µM (inactive)
Hs-578T
  GI50: > 100 µM (inactive)
OVCAR-5
  GI50: > 100 µM (inactive)
MDA-N
  GI50: > 100 µM (inactive)
CCRF-CEM
  GI50: > 100 µM (inactive)
SNB-75
  GI50: > 100 µM (inactive)
COLO 205
  GI50: > 100 µM (inactive)
MDA-MB-435
  GI50: > 100 µM (inactive)
SW-620
  GI50: > 100 µM (inactive)
NCI/ADR-RES
  GI50: > 100 µM (inactive)
SNB-19
  GI50: > 100 µM (inactive)
SK-MEL-5
  GI50: > 100 µM (inactive)
CAKI-1
  GI50: > 100 µM (inactive)
SK-MEL-28
  GI50: > 100 µM (inactive)
RPMI-8226
  GI50: > 100 µM (inactive)
OVCAR-3
  GI50: > 100 µM (inactive)
ACHN
  GI50: > 100 µM (inactive)
UO-31
  GI50: > 100 µM (inactive)
SK-MEL-2
  GI50: > 100 µM (inactive)

## CN1CCN(CC(=O)Nc2cccc3ccccc23)CC1
NCI-H522
  GI50: > 100 µM (inactive)
SN12C
  GI50: > 100 µM (inactive)
PC-3
  GI50: > 100 µM (inactive)
K562
  GI50: > 100 µM (inactive)
MOLT-4
  GI50: > 100 µM (inactive)
HOP-92
  GI50: > 100 µM (inactive)
TK-10
  GI50: > 100 µM (inactive)
UACC-257
  GI50: > 100 µM (inactive)
SF-295
  GI50: > 100 µM (inactive)
LOX IMVI
  GI50: > 100 µM (inactive)
DU-145
  GI50: > 100 µM (inactive)
HCT-15
  GI50: > 100 µM
MCF7
  GI50: > 100 µM (inactive)
HOP-62
  GI50: > 100 µM (inactive)
HCC 2998
  GI50: > 100 µM (inactive)
SF-268
  GI50: > 100 µM (inactive)
HT-29
  GI50: > 31.6 µM (inactive)
A549
  GI50: > 100 µM (inactive)
RXF 393
  GI50: > 100 µM (inactive)
U-251
  GI50: > 100 µM (inactive)
SK-OV-3
  GI50: > 100 µM (inactive)
MDA-MB-231
  GI50: > 100 µM (inactive)
HL-60
  GI50: > 100 µM (inactive)
UACC-62
  GI50: > 100 µM (inactive)
OVCAR-8
  GI50: > 100 µM (inactive)
NCI-H460
  GI50: > 100 µM (inactive)
OVCAR-4
  GI50: > 100 µM (inactive)
SR
  GI50: > 100 µM (inactive)
EKVX
  GI50: > 100 µM (inactive)
A498
  GI50: > 100 µM (inactive)
M14
  GI50: > 100 µM (inactive)
NCI-H23
  GI50: > 100 µM (inactive)
SF-539
  GI50: > 100 µM (inactive)
Malme-3M
  GI50: > 100 µM (inactive)
KM12
  GI50: > 100 µM (inactive)
BT-549
  GI50: > 100 µM (inactive)
786-0
  GI50: > 100 µM (inactive)
IGROV-1
  GI50: > 100 µM (inactive)
T47D
  GI50: > 100 µM (inactive)
HCT-116
  GI50: > 100 µM (inactive)
NCI-H226
  GI50: > 100 µM (inactive)
Hs-578T
  GI50: > 100 µM (inactive)
OVCAR-5
  GI50: > 100 µM (inactive)
MDA-N
  GI50: > 100 µM (inactive)
CCRF-CEM
  GI50: > 100 µM (inactive)
COLO 205
  GI50: > 100 µM (inactive)
MDA-MB-435
  GI50: > 100 µM (inactive)
SW-620
  GI50: > 100 µM (inactive)
NCI/ADR-RES
  GI50: > 100 µM (inactive)
SNB-19
  GI50: > 100 µM (inactive)
SK-MEL-5
  GI50: > 100 µM (inactive)
CAKI-1
  GI50: > 100 µM (inactive)
SK-MEL-28
  GI50: > 100 µM (inactive)
RPMI-8226
  GI50: > 100 µM (inactive)
OVCAR-3
  GI50: > 100 µM (inactive)
ACHN
  GI50: > 100 µM (inactive)
UO-31
  GI50: > 100 µM (inactive)
SK-MEL-2
  GI50: > 100 µM (inactive)
